Measurements from patent US10940129B2, “Method of treatment for reducing pain sensitization” (priority 2018, dated 2021).
Substitutions are numbered along the chain they refer to. Like-named read-outs stand apart in the source and are kept apart here.

What was measured:
mouse TRPA1 = biological target: T1, mouse TRPA1 (Mus musculus, UniProt Q8BLA8); details: HEK 293 cells transfected with mouse TRPA1; cited from earlier work
T1 construct: expressed in transfected cells; host or cells: HEK 293

TRPA1 [1] = details: low level of 4-HNE; 25 degrees C. to 10 degrees; cited from earlier work
mice = details: low dose into the hind paws; zero degree cold plate; vehicle 125 seconds; cited from earlier work
TRPA1 [2] = biological target: TRPA1 (Homo sapiens, UniProt O75762); assay: TRPA1 agonist activity
ALDH2*1 = biological target: T2, ALDH2*1 (Homo sapiens, UniProt P05091); details: [Perez-Miller, 2010]; cited from earlier work
T2 sequence (P05091 18-517): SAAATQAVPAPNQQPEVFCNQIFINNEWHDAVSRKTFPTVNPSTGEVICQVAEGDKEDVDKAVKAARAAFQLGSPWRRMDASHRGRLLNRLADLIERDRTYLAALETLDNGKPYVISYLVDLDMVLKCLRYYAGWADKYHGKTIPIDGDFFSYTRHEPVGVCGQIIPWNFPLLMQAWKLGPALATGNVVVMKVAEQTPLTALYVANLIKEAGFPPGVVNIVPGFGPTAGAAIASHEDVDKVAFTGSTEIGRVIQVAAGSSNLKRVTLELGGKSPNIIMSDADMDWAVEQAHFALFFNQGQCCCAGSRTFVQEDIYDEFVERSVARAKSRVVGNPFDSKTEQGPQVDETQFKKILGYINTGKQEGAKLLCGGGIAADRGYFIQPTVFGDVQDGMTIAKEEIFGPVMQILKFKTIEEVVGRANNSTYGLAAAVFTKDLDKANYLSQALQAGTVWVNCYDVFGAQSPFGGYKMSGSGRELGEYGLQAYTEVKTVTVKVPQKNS

ALDH2*1/*2 mice = details: 1.2 g stimulus level, 3 hours after carrageenan; cited from earlier work
[3] = tested on: wild-type and mutant mice; details: 10 to 40 minutes; formalin (2% aqueous formaldehyde) into the paw; both wild-type and mutant mice; cited from earlier work
ALDH2*2 = biological target: T3, ALDH2*2 (Homo sapiens, UniProt P05091, E504K); details: [Chen, 2008]; cited from earlier work
T3 sequence (P05091 18-517 E504K): T2 sequence (P05091 18-517) with E487K

[4] = Computed Log P (PubChem, XLogP3-AA algorithm); details: worked out from Log P
Excerpt: Partition coefficient; Log P: The ratio of the concentrations of a solute between two solvents. When one of the solvents is non-polar and the other is water, this is a measure of lipophilicity and the logarithm of the ratio is Log P. Unless otherwise specified, the Log P values reported herein are from the National Library of Medicine “PubChem” database (which uses the XLogP3-AA algorithm for Log P determination).

chronic pain = assay: Self-reports of voluntary evaluators taking Protein-Allium (10 point pain scale, symptoms, side effects)
Excerpt: On a 10 point pain scale the pain level was 10.
On a 10 point pain scale, the pain level was 10.

[5] = tested on: formaldehyde induced pain and toxicity; details: [Bai, 2012], [Song, 2010]; cited from earlier work
[6] = tested on: ALDH2*1/*2 mutant and wild-type mice; details: cited from earlier work; for licking or flinching: 100 ng into a rear paw
male rats = details: 5 day course started 10 days after chronic constriction injury; cited from earlier work
[7] = tested on: glutathione content of cells; details: daily dosage of 1000 mg; patients; cited from earlier work

T1 sequence (Q8BLA8 whole entry): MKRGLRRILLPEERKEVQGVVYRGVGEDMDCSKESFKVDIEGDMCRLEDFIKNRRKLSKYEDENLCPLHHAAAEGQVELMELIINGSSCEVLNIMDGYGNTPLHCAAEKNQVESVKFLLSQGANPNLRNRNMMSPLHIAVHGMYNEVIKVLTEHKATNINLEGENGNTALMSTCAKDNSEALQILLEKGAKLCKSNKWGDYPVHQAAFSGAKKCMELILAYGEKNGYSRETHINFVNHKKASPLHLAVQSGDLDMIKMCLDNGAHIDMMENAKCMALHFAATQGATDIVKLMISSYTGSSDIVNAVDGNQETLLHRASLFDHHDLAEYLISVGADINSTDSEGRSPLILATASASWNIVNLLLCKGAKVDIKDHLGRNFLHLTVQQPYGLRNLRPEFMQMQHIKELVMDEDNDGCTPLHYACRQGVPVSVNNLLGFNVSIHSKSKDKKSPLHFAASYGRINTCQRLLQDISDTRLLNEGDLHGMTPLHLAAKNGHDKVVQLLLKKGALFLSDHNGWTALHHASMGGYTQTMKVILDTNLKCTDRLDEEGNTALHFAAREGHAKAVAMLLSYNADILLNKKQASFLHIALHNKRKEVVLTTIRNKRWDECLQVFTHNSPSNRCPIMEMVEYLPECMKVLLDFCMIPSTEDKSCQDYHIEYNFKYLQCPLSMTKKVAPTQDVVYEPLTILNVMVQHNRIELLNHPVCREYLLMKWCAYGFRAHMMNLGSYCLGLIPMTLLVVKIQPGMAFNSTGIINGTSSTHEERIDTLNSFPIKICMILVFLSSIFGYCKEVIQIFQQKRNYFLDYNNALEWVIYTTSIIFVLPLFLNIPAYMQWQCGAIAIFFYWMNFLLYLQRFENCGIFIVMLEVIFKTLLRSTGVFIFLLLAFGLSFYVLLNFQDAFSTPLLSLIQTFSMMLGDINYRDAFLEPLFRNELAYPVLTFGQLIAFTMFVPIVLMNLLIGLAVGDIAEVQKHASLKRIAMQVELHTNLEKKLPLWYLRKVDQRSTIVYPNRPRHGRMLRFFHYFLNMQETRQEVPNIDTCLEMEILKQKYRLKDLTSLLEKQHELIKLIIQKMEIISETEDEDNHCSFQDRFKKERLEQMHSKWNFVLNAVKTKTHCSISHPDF
TRPA1 (Homo sapiens, UniProt O75762), sequence (O75762 whole entry, species assumed): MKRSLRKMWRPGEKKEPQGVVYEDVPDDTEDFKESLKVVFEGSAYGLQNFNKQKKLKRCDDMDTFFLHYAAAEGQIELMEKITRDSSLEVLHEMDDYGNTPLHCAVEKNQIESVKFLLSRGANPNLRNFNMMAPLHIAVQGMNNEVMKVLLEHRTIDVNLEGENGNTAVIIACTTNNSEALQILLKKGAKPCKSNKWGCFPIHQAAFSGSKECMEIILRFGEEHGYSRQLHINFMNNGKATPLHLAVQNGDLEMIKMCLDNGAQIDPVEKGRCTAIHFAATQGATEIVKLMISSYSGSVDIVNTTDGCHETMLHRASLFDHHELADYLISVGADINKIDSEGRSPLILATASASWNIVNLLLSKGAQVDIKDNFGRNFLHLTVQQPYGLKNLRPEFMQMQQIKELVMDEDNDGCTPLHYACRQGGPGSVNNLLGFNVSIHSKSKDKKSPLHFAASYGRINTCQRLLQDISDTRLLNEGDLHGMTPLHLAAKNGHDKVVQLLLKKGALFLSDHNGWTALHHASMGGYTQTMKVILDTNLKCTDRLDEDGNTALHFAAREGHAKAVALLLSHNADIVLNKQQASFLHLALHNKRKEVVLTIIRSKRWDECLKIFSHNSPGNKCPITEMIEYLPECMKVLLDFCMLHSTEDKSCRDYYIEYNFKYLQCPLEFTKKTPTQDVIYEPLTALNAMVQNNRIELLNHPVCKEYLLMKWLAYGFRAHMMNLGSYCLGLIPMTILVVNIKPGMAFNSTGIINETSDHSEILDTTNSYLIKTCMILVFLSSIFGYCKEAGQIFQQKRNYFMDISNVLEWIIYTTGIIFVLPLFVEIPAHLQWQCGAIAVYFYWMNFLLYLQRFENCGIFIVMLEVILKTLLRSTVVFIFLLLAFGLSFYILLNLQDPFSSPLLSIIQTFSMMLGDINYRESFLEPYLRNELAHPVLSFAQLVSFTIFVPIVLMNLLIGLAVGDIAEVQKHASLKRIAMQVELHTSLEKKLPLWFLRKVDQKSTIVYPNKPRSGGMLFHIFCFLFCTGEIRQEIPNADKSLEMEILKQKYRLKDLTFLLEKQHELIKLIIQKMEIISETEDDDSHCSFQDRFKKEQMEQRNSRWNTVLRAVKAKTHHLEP

O[C@H](CS)[C@H](O)CS (racemic) [dithiothreitol]
effect on H2O2-induced Ca^2+ increase (mouse TRPA1): markedly decreased

c1ccc(SSc2ccccn2)nc1 [2,2′-dipyridyl disulfide]
intracellular Ca^2+ (mouse TRPA1): increased intracellular Ca^2+ in a dose-dependent manner

CCCCCC(O)C=CC=O (centres unmarked) [4-hydroxy-2-nonenal (4-HNE), 4-hydroxy-2-nonenal]
potentiation of current flow by lowering the temperature (TRPA1 [1]): 3 factor
time to first jump (mice): 20 s

CCCCC/C=C/C=C1/C(=O)C=C[C@@H]1C/C=C\CCCC(=O)O [15d-PGJ2]
more active than 4-HNE (TRPA1 [2]): ~10

O=C(NCc1ccc2c(c1)OCO2)c1c(Cl)cccc1Cl [Alda-1]
efficiency of ALDH2*1 (ALDH2*1): doubles
less sensitive to mechanical pain than wild-type mice without treatment (ALDH2*1/*2 mice): ~30%
decrease of early second phase pain response [3]: ~60%
increase of the activity of ALDH2*2 (ALDH2*2): 2.2 fold

C=CCSSCC=C [Diallyl disulfide]
concentration on the oily (lipid) side relative to the aqueous side [4]: about 160 times

NCC1(CC(=O)O)CCCCC1 [Gabapentin]
side effects (chronic pain; self-report): bad side effects (drowsiness)
muscle memory (residual pain), shoulder neuropathy (chronic pain; subject two): always had muscle memory of the pain

N[C@@H](CCS)C(=O)O [Homocysteine, (S)-2-Amino-4-mercaptobutyric acid]
more hydrophilic than cysteine [4]: ~10 ×

COc1ccc2cc([C@H](C)C(=O)O)ccc2c1 [Naprosyn]
pain level, adenomyosis (chronic pain; 10-point pain scale, subject two): 4

NNCCc1ccccc1 [Phenelzine]
reducing formaldehyde induced pain and toxicity [5]: effective

CCCS [Propyl mercaptan, 1-PropaneThiol]
concentration on the oily (lipid) side relative to the aqueous side [4]: about 65 times

CC=O [acetylaldehyde]
licking or flinching ([6]; mutant mice): 5 s
licking or flinching ([6]; wild-type mice): 4 s
mutant mice more sensitive to pressure (nociceptive threshold) ([6]; after injection, mutant vs wild-type mice): 4 times

CC12CCC(CC1=O)C2(C)C (centres unmarked) [camphor]
effect on H2O2-induced Ca^2+ increase (mouse TRPA1): prevents

C[C@]12CCC(=O)C=C1CC[C@@H]1[C@@H]2C(=O)C[C@@]2(C)[C@H]1CC[C@]2(O)C(=O)CO [cortisone]
benefit on back pain (chronic pain; injection, subject one): minimal benefit

N[C@@H](CS)C(=O)O [cysteine, (R)-2-Amino-3-mercaptopropanoic acid]
partitions into water vs. oil [4]: ~300 to 1

CCCSSCCC [disulfide from propyl mercaptan, dipropyl disulfide]
concentration on the oily (lipid) side relative to the aqueous side [4]: about 500 times

CN1CC[C@]23c4c5ccc(O)c4O[C@H]2[C@@H](O)C=C[C@H]3[C@H]1C5 [morphine]
duration of injury-related allodynia (male rats): more than doubling

O=C1O[C@H]([C@@H](O)CO)C(O)=C1O [vitamin C]
mean percentage decrease of glutathione [7]: 60%

catalase
effect on H2O2-induced Ca^2+ increase (mouse TRPA1): abolished
